Structures can show the parent of a compound that is named as a salt.
Test: in vitro
Conditions: rat, gh3-tre-luc cells, AC50 (uM) modified / 1000
For `COc1ccccc1OCC(O)CN1CCN(CC(=O)Nc2c(C)cccc2C)CC1` (stereo not shown) [Ranolazine], the CC50 at 24 h was > 50 µM. With `NC1CCCCC1` [Cyclohexylamine hydrochloride] the CC50 at 24 h was > 90 µM. With `COC(=O)c1cccnc1` [Methyl nicotinate] the CC50 at 24 h was > 90 µM. With `CC(CC(c1ccccc1)c1ccccc1)NC(C)(C)C` (stereo not shown) [Terodiline hydrochloride] the CC50 at 24 h was 11 µM. For `C#CCN[C@@H]1CCc2ccccc21` [Rasagiline mesylate], the CC50 at 24 h was > 50 µM. In the case of `CC[N+](CC)(CCNC(=O)C(=O)NCC[N+](CC)(CC)Cc1ccccc1Cl)Cc1ccccc1Cl` [Ambenonium chloride], the CC50 at 24 h is reported as > 50 µM. For `CC[C@@H](C(=O)[C@@H](C)[C@@H](O)[C@H](C)CCc1ccc(C)c(O)c1C(=O)O)[C@H]1O[C@](CC)([C@H]2CC[C@](O)(CC)[C@H](C)O2)C[C@@H]1C` [Lasalocid sodium], the CC50 at 24 h was 2.85 µM. For `COc1cccc(N(C)C(=S)Oc2ccc3c(c2)CCCC3)n1` [Liranaftate], the CC50 at 24 h was > 50 µM. With `Cc1cc(C)c(C(=O)O)c(C)c1` [2,4,6-Trimethylbenzoic acid] the CC50 at 24 h was > 90 µM. With `CCN(CC)C(=O)/C(C#N)=C/c1cc(O)c(O)c([N+](=O)[O-])c1` [Entacapone] the CC50 at 24 h was > 50 µM. In the case of `COC(=O)[C@@H](N)CCCNC(=N)N[N+](=O)[O-]` [L-Nitroarginine methyl ester], the CC50 at 24 h is reported as > 50 µM. In the case of `COCC(=O)O` [Methoxyacetic acid], the CC50 at 24 h is reported as > 90 µM. `BrCC(Br)C1CCC(Br)C(Br)C1` (stereo not shown) [1,2-Dibromo-4-(1,2-dibromoethyl)cyclohexane] gave a CC50 at 24 h of 55.8 µM. With `CCCCOCCOC(=O)COc1nc(Cl)c(Cl)cc1Cl` [Triclopyr butotyl] the CC50 at 24 h was > 90 µM. For `CCCCCCCCOC(=O)c1ccccc1C(=O)OCCCCCCCC` [Di-n-octyl phthalate], the CC50 at 24 h was > 90 µM. For `OCC1CC=CCC1` (stereo not shown) [Cyclohex-3-en-1-ylmethanol], the CC50 at 24 h was > 90 µM. With `O=C(N[C@H](c1ccccc1)[C@@H]1CN2CCC1CC2)c1c(Cl)ccc(C(F)(F)F)c1Cl` [SSR 103800] the CC50 at 24 h was 9.74 µM. In the case of `O=Nc1ccc(NO)cc1` [p-Benzoquinone dioxime], the CC50 at 24 h is reported as > 100 µM. With `Cc1cnc(C(=O)O)c[n+]1[O-]` [Acipimox] the CC50 at 24 h was > 50 µM. In the case of `C[N+]12CCC(CC1)C(OC(=O)C(O)(c1ccccc1)c1ccccc1)C2` (stereo not shown) [Clidinium bromide], the CC50 at 24 h is reported as > 20 µM. In the case of `Cc1cccn2c(=O)c(-c3nnn[nH]3)cnc12` [Pemirolast potassium], the CC50 at 24 h is reported as > 50 µM. `Oc1ccc(Cl)c2cccnc12` [Cloxyquin] showed a CC50 at 24 h of 7.71 µM. In the case of `O=C(O)c1ccc(-n2nc(-c3ccccc3O)nc2-c2ccccc2O)cc1` [Deferasirox], the CC50 at 24 h is reported as 41.8 µM. With `CC(=O)CC(=O)c1ccccc1` [1-Benzoylacetone] the CC50 at 24 h was > 90 µM. With `CCCCNS(=O)(=O)c1ccccc1` [N-Butylbenzenesulfonamide] the CC50 at 24 h was > 90 µM. With `CC1=NN(c2ccccc2)C(=O)C1` [1-Phenyl-3-methyl-5-pyrazolone] the CC50 at 24 h was > 90 µM. In the case of `c1ccc(SSc2ccccc2)cc1` [Diphenyl disulfide], the CC50 at 24 h is reported as > 90 µM. With `C[C@@H]1C[C@H]2[C@@H]3C[C@H](F)C4=CC(=O)C=C[C@]4(C)[C@@]3(Cl)[C@@H](O)C[C@]2(C)[C@H]1C(=O)COC(=O)C(C)(C)C` [Clocortolone pivalate] the CC50 at 24 h was > 50 µM. Work on `CC(C)COCC(CN(Cc1ccccc1)c1ccccc1)N1CCCC1` (stereo not shown) [Bepridil] yielded a CC50 at 24 h of 9.16 µM. For `CCCCC/C=C\C/C=C\CCCCCCCC(=O)NC(C)c1ccccc1` (stereo not shown) [Melinamide], the CC50 at 24 h was > 50 µM. In the case of `C=CC(=O)OC` [Methyl acrylate], the CC50 at 24 h is reported as > 90 µM. With `CCCCCCCC#N` [Octanenitrile] the CC50 at 24 h was > 90 µM. With `CC(C)CC(C)N(c1ccccc1)c1ccc(N)cc1` (stereo not shown) [N-(4-Methylpentan-2-yl)-N-phenylbenzene-1,4-diamine] the CC50 at 24 h was 28.5 µM. With `CCOC(=O)CC(=O)c1cc(F)c(Cl)nc1Cl` [Ethyl 2,6-dichloro-5-fluoro-?-oxo-3-pyridinepropionate] the CC50 at 24 h was > 90 µM. Work on `COc1cccc(-c2ccc(/C=C\CN3CCCCCC3)cc2Cl)c1` [SR125047] yielded a CC50 at 24 h of 17.7 µM. With `OC(c1ccc(Cl)cc1)(c1ccc(Cl)cc1)C(Cl)(Cl)Cl` [Dicofol] the CC50 at 24 h was 79.5 µM. With `C=C(C)OC(C)=O` [Isopropenyl acetate] the CC50 at 24 h was > 90 µM. For `CCOC(=O)COc1ccc(C)cc1` [(4-Methylphenoxy) acetic acid ethyl ester], the CC50 at 24 h was > 90 µM. In the case of `Cc1ccc(S(=O)(=O)NC(=O)NC2CCCC2)cc1` [Tolpentamide], the CC50 at 24 h is reported as > 50 µM. For `Cc1ccc(C(C)C)cc1` [p-Cymene], the CC50 at 24 h was > 90 µM. In the case of `CCOC(=O)c1ccccc1C(=O)OCC` [Diethyl phthalate], the CC50 at 24 h is reported as > 90 µM. For `NCCCC(=O)O` [4-Aminobutanoic acid], the CC50 at 24 h was > 50 µM. In the case of `C/C=C/C=C/CO` [(2E,4E)-Hexa-2,4-dien-1-ol], the CC50 at 24 h is reported as > 90 µM. For `CCN1CN(CC)CN(CC)C1` [1,3,5-Triethylhexahydro-s-triazine], the CC50 at 24 h was > 90 µM. For `Cc1c(C)c([N+](=O)[O-])c(C(C)(C)C)c([N+](=O)[O-])c1C` [1-tert-Butyl-3,4,5-trimethyl-2,6-dinitrobenzene], the CC50 at 24 h was 73.9 µM. For `Nc1ccc(Cl)c(N)c1` [4-Chloro-1,3-diaminobenzene], the CC50 at 24 h was > 90 µM. For `C=C(C)[C@@H]1CC=C(C)CC1` [(S)-Limonene], the CC50 at 24 h was > 90 µM. In the case of `CC(C)COC(=O)COc1cc(Cl)c(Cl)cc1Cl` [Isobutyl (2,4,5-trichlorophenoxy)acetate], the CC50 at 24 h is reported as > 90 µM. With `CCOC(=O)CCC(=O)OCC` [Diethyl butanedioate] the CC50 at 24 h was > 90 µM. In the case of `O=C(NO)c1ccccc1` [N-Hydroxybenzamide], the CC50 at 24 h is reported as > 90 µM. In the case of `CCCCCCOC(=O)c1ccccc1O` [Hexyl salicylate], the CC50 at 24 h is reported as > 90 µM. With `[H]/N=C(\N/C(=N/[H])Nc1ccc(Cl)cc1)NC(C)C` [Proguanil hydrochloride] the CC50 at 24 h was > 20 µM. In the case of `COCc1nnc(-c2ccc[n+]([O-])c2)n1-c1c(Cl)c(Cl)cc2[nH]c(=O)c(=O)[nH]c12` [UK-333747], the CC50 at 24 h is reported as > 90 µM. With `OC[C@H]1O[C@@](CO)(O[C@H]2O[C@H](CO)[C@@H](O)[C@H](O)[C@H]2O)[C@@H](O)[C@@H]1O` [Sucrose] the CC50 at 24 h was > 90 µM. In the case of `O=C(O)c1ccc2cc(O)ccc2c1` [6-Hydroxy-2-naphthoic acid], the CC50 at 24 h is reported as > 90 µM. In the case of `CNC(=S)N(C)C` [1,1,3-Trimethyl-2-thiourea], the CC50 at 24 h is reported as > 90 µM. With `CC1CC(OC(=O)C(O)c2ccccc2)CC(C)(C)C1` (stereo not shown) [Cyclandelate] the CC50 at 24 h was > 50 µM. For `CCCCCCCC[Si](OCC)(OCC)OCC` [Triethoxyoctylsilane], the CC50 at 24 h was > 90 µM. For `CCCCCC(CO)CCC` (stereo not shown) [2-Propyl-1-heptanol], the CC50 at 24 h was > 90 µM. In the case of `Cc1cc(S(=O)(=O)O)c(N)cc1Cl` [2-Amino-4-chloro-5-methylbenzenesulfonic acid], the CC50 at 24 h is reported as > 90 µM. With `NC(=O)CI` [Iodoacetamide] the CC50 at 24 h was > 90 µM. In the case of `CC(=O)c1ccc(C(C)=O)cc1` [1,1-(1,4-Phenylene)bis-ethanone], the CC50 at 24 h is reported as > 90 µM. With `OC/C(Br)=C(\Br)CO` [(2E)-2,3-Dibromo-2-butene-1,4-diol] the CC50 at 24 h was > 90 µM. For `CCCCCCCCCC(=O)NO` [Decanohydroxamic acid], the CC50 at 24 h was > 50 µM. For `CC(C)=CC(C)(C)C` [2,4,4-Trimethyl-2-pentene], the CC50 at 24 h was > 90 µM. For `C/C=C/c1ccc(OC)cc1` [Anethole], the CC50 at 24 h was > 90 µM. With `C=CCOC(=O)C(=C)C` [Allyl methacrylate] the CC50 at 24 h was > 100 µM. In the case of `CC[C@@H]1C(=O)OC[C@@H]1Cc1cncn1C` [Pilocarpine], the CC50 at 24 h is reported as > 50 µM. With `Cc1oc(=O)oc1CN1CCN(c2cc3c(cc2F)c(=O)c(C(=O)O)c2n3C(C)S2)CC1` (stereo not shown) [Prulifloxacin] the CC50 at 24 h was > 50 µM.

Same assay, conditions: rat, gh3-tre-luc cells, AC50 (uM) modified / 1000, Tox21_110001=Tox21_110445; viability, 1 nM T3 present, 24 h
With `CC1=C2[C@H]3OC(=O)[C@@H](C)[C@@H]3CC[C@@]2(C)C=CC1=O` [alpha-Santonin] the CC50 at 24 h was > 50 µM.

Same assay, conditions: rat, gh3-tre-luc cells, AC50 (uM) modified / 1000, Tox21_110001=Tox21_110539; viability, 1 nM T3 present, 24 h
For `O=P1(NCCCl)OCCCN1CCCl` (stereo not shown) [Ifosfamide], the CC50 at 24 h was > 20 µM.

Same assay, conditions: rat, gh3-tre-luc cells, AC50 (uM) modified / 1000, Tox21_110001=Tox21_111641; viability, 1 nM T3 present, 24 h
In the case of `CCC1(c2ccccc2)CCC(=O)NC1=O` (stereo not shown) [Glutethimide], the CC50 at 24 h is reported as > 50 µM.

Same assay, conditions: rat, gh3-tre-luc cells, AC50 (uM) modified / 1000, Tox21_110001=Tox21_111807; viability, 1 nM T3 present, 24 h
With `C[C@@H](Cc1ccccc1)N(C)C` [Dimetamfetamine] the CC50 at 24 h was > 50 µM.

Same assay, conditions: rat, gh3-tre-luc cells, AC50 (uM) modified / 1000, Tox21_110001=Tox21_201548; viability, 1 nM T3 present, 24 h
With `CN=C=S` [Methyl isothiocyanate] the CC50 at 24 h was > 90 µM.

Same assay, conditions: rat, gh3-tre-luc cells, AC50 (uM) modified / 1000, Tox21_110001=Tox21_201815; viability, 1 nM T3 present, 24 h
For `O=P1(NCCCl)OCCCN1CCCl` (stereo not shown) [Ifosfamide], the CC50 at 24 h was > 90 µM.

Same assay, conditions: rat, gh3-tre-luc cells, AC50 (uM) modified / 1000, Tox21_110001=Tox21_202028; viability, 1 nM T3 present, 24 h
For `CCOP(=S)(OCC)Oc1cnc2ccccc2n1` [Quinalphos], the CC50 at 24 h was > 90 µM.

Same assay, conditions: rat, gh3-tre-luc cells, AC50 (uM) modified / 1000, Tox21_110001=Tox21_202245; viability, 1 nM T3 present, 24 h
For `OCCCCO` [1,4-Butanediol], the CC50 at 24 h was > 90 µM.

Same assay, conditions: rat, gh3-tre-luc cells, AC50 (uM) modified / 1000, Tox21_110001=Tox21_202294; viability, 1 nM T3 present, 24 h
With `CCOP(=S)(OCC)SCn1c(=O)oc2cc(Cl)ccc21` [Phosalone] the CC50 at 24 h was > 100 µM.

Same assay, conditions: rat, gh3-tre-luc cells, AC50 (uM) modified / 1000, Tox21_110001=Tox21_300811; viability, 1 nM T3 present, 24 h
With `CCOP(=S)(OCC)SCn1c(=O)oc2cc(Cl)ccc21` [Phosalone] the CC50 at 24 h was 80.4 µM.

Same assay, conditions: rat, gh3-tre-luc cells, AC50 (uM) modified / 1000, Tox21_110001=Tox21_300912; viability, 1 nM T3 present, 24 h
For `CN=C=S` [Methyl isothiocyanate], the CC50 at 24 h was > 200 µM.

Same assay, conditions: rat, gh3-tre-luc cells, AC50 (uM) modified / 1000, Tox21_110001=Tox21_301333; viability, 1 nM T3 present, 24 h
With `CCCN(CCCl)c1c([N+](=O)[O-])cc(C(F)(F)F)cc1[N+](=O)[O-]` [Fluchloralin] the CC50 at 24 h was > 90 µM.

Same assay, conditions: rat, gh3-tre-luc cells, AC50 (uM) modified / 1000, Tox21_110001=Tox21_302219; viability, 1 nM T3 present, 24 h
For `CCOP(=S)(NC(C)C)Oc1ccccc1C(=O)OC(C)C` (stereo not shown) [Isofenphos], the CC50 at 24 h was 78.7 µM.

From paper PMC6792352, “Limited Chemical Structural Diversity Found to Modulate Thyroid Hormone Receptor in the Tox21 Chemical Library” (Environmental Health Perspectives, 2019)
